ChEMBL document CHEMBL4813930, “Cytotoxic Manoalide-Type Sesterterpenes from the Sponge Luffariella variabilis Collected in the South China Sea” (J Nat Prod, 2021)

Legend:
[1] = Cytotoxicity against human NCI-H69AR cells by SRB assay; type: functional, cell-based
[2] = tested on: ASPC1; assay: Cytotoxicity against human ASPC1 cells by SRB assay; type: functional, cell-based
[3] = tested on: L02; assay: Cytotoxicity against human L02 cells by SRB assay; type: cell-based
[4] = tested on: MDA-MB-231; assay: Cytotoxicity against human MDA-MB-231 cells by SRB assay; type: functional, cell-based
[5] = tested on: K562; assay: Cytotoxicity against human K562 cells by MTT assay; type: functional, cell-based

Compound | IC50 [1] | IC50 [2] | IC50 [3] | IC50 [4] | IC50 [5]
COC(=O)Cc1cc(CC/C=C(\C)CC/C=C(\C)CCC=C(C)C)ccc1O | > 30 µM | > 30 µM | > 30 µM | > 30 µM | 15 µM
COc1cccc2c1C(=O)c1c(O)c3c(c(O)c1C2=O)C[C@@](O)(C(=O)CO)C[C@@H]3O[C@H]1C[C@H](N)[C@H](O)[C@H](C)O1 [DOXORUBICIN] | < 1 µM | < 1 µM | < 1 µM | < 1 µM | < 1 µM
